Test results taken from paper PMC11320730, “5-Methoxy-2-aminoindane Reverses Diet-Induced Obesity and Improves Metabolic Parameters in Mice: A Potential New Class of Antiobesity Therapeutics” (ACS Pharmacology & Translational Science, 2024).

Assays:
[1] = tested on: vesicular monoamine transporter (VMAT); design: method as in PMID 29458138; details: cited from earlier work
MAO-B = tested on: MAO-B; design: method as in PMID 29458138; details: cited from earlier work
[2] = tested on: hepatic lipid metabolism genes; experiment: Real-time PCR of liver mRNA in DIO mice; format: in vivo; details: 40 mg/kg/day
Procedure: (§1) Male C57BL/6 mice were used to establish DIO by feeding them a high-fat diet (HFD; 60% cal/L fat, 20% cal/L protein, and 20% cal/L carbohydrates; Research Diet, D12492) for 18 weeks. After this period, mice were treated with either vehicle (sterile water, N = 8) or MEAI (N = 11) daily for 28 days by gavage at a dose of 40 mg/kg/day. Age-matched control mice (N = 10) on a standard diet (STD; 14% kcal fat, 24% kcal protein, 62% kcal carbohydrates; NIH-31 rodent diet) received vehicle daily. The body weight of all mice was monitored daily, and total body fat and lean mass were determined by EchoMRI-100H (Echo Medical Systems LLC, Houston, Texas, USA). On day 29, at the end of the experimental period, mice were euthanized by a cervical dislocation under anesthesia. The kidneys, brain, liver, and fat pads were removed and weighed, and samples were either snap-frozen or fixed in buffered 4% formalin. Trunk blood was collected to determine the biochemical parameters.
mRNA from livers was extracted using a Bio-Tri RNA lysis buffer (Bio-Lab, Israel), followed by DNase I treatment (Thermo Scientific, Illinois, USA), and reverse transcribed using the qScript cDNA Synthesis kit (Quantabio, Beverly, Massachusetts, USA). Real-time PCR was performed using an iTaq Universal SYBR Green Supermix (Bio-Rad, California, USA) and the CFX connect ST system (Bio-Rad, California, USA). The full list of primers is available as Table S1.

[3] = tested on: hepatic lipid metabolism regulators; experiment: Western blotting of liver proteins in DIO mice; format: in vivo; details: 40 mg/kg/day
Procedure: as §1
Liver samples were prepared in a RIPA buffer (25 mM Tris–HCl pH 7.6, 150 mM NaCl, 1% NP-40, 1% sodium deoxycholate, 0.1% SDS), and the homogenates were prepared by using the Bullet Blender and zirconium oxide beads (catalog no. ZROB10, Next Advanced, Inc., New York, USA). Protein concentrations were measured with the Pierce BCA Protein Assay Kit (catalog no. 23225, Thermo Scientific, Illinois, USA). Samples were resolved by SDS-PAGE (4–15% acrylamide, 150 V) and transferred to PVDF or nitrocellulose membranes using the Trans-Blot Turbo Transfer System (Bio-Rad, California). The membranes were then incubated for 1 h in 5% milk (in 1× M TBS-T) to block unspecific binding. The membranes were incubated overnight with cluster of differentiation 36 (CD36; Abcam, Cambridge, UK; Cat# ab252922), stearoyl-CoA desaturase 1 (SCD1; Cell Signaling Technology, Danvers, Massachusetts; Cat# 2794S), fatty acid synthase (FASN; Cell Signaling Technology, Danvers, Massachusetts, USA; Cat# 3180S), 5′-adenosine monophosphate (AMP)-activated protein kinase alpha (AMPKα; Cell Signaling Technology, Danvers, Massachusetts, USA; Cat# 2532S), phosphorylated-AMPKα (Cell Signaling Technology, Danvers, Massachusetts, USA; Cat# 2535S), acetyl-CoA carboxylase (ACC; Cell Signaling Technology, Danvers, Massachusetts, USA; Cat# 3662S), and phosphorylated ACC (Cell Signaling Technology, Danvers, Massachusetts, USA; Cat# 3661S) antibodies at 4 °C. Antirabbit/mouse horseradish peroxidase (HRP)-conjugated secondary antibodies were used for 1 h at room temperature, followed by chemiluminescence detection using Clarity Western ECL Blotting Substrate (Bio-Rad, California). Densitometry was quantified by using ImageJ software. Quantification was normalized to anti-β actin antibody (Abcam, Cambridge, UK; Cat# ab49900) or valosin-containing protein (VCP) (Abcam, Cambridge, UK; Cat# ab204290).

Which results are given for `COc1ccc2c(c1)CC(N)C2.Cl` (centres unmarked) [MEAI, 2,3-Dihydro-5-methoxy-1H-inden-2-amine hydrochloride]?
binding inhibition [1]: unaffected; binding inhibition (MAO-B): unaffected; 7-dehydrocholesterol reductase (Dhcr) expression [2]: no significant changes; Acaca mRNA expression [2]: significantly decreased; Crebp expression [2]: did not affect; Dgat2 expression [2]: did not affect; Fabp1 mRNA expression [2]: significantly decreased; Fasn mRNA expression [2]: significantly decreased; G6pdx mRNA expression [2]: significantly decreased; Hmgcr expression [2]: no significant changes; LDL receptor (Lldr) expression [2]: no significant changes; Nr1h3 expression [2]: no significant changes; Pparg expression [2]: did not affect; Scd1 mRNA expression [2]: significantly decreased; Srebp1 expression [2]: did not affect; hormone-sensitive lipase (Hsl) mRNA expression [2]: no significant changes; Cd36 mRNA expression ([2]; p < 0.05): significantly downregulated; lipoprotein lipase (Lpl) mRNA level ([2]; p < 0.05): significant decrease; CD36 protein levels [3]: remained unchanged; FASN protein levels [3]: significantly reduced; SCD1 protein levels [3]: significantly reduced; phosphorylated ACC (p-ACC) levels [3]: did not significantly affect; phosphorylated AMPK (p-AMPK) [3]: trend toward increased
